Where “and” joins values, the source holds several entries; their conditions need not be identical. Equal values may be shown once.
Legend:
[1] = molecular target: T1, human serum albumin (HSA) (Homo sapiens, UniProt P02768); test: Plasma protein binding on Chiralpak HSA column; format: in vitro ADME
T1 construct: purchased Chiralpak (manufacturer not given)
Procedure: Plasma protein binding of the tracers was determined using an analytical Chiralpak human serum albumin (HSA) column (50 × 3 mm, 5 μm) according to a previously published protocol with minor changes.

[2] = tested on: mCRPC patient; test: PET/MR imaging of a mCRPC patient (compassionate use); format: in vivo, human; conditions: PET/MR 62 min after injection of 158 MBq
Procedure: Based on the promising preclinical results obtained for EuE-k-^18F-FBOA (1) a mCRPC patient (PSA 392 ng/ml) was imaged under compassionate use. The agent was applied in compliance with The German Medicinal Products Act, Arzneimittelgesetz (AMG) §13 2b, and in accordance with the responsible regulatory body (Government of Oberbayern). The patient underwent PET/MR imaging 62 min after injection of 158 MBq of EuE-k-^18F-FBOA (Fig. 6).
Images show the typical biodistribution of PSMA ligands with minimal blood pool retention.

[3] = tested on: PSMA-expressing LNCaP cells; test: Internalization of the 18F-labeled ligands, normalized to ([125I]I-BA)KuE; format: cell-based, human; conditions: for Specific Internalization (1h; % of reference): LNCaP cells, 37°C, corrected for non-specific internalization (100 μM PMPA), reference ([125I]I-BA)KuE, mean ± SD, n = 3; for fold higher internalization rate than the reference ligands: versus 18F-DCFPyl and 18F-PSMA-1007, PSMA-expressing cells
Procedure: PSMA overexpressing LNCaP cells (CLS: 300265) were cultured in DMEM/Nutrition Mix F-12 with Glutamax-I (1:1) (Invitrogen, Life Technologies, Darmstadt, Germany) supplemented with 10% FCS and were maintained at 37 °C in a 5% CO2/humidified air atmosphere. For IC50 determination, approximately 150,000 cells/well were seeded on 24-well plates 1 day prior to the experiment. For internalization studies, 125,000 cells/well were seeded in PLL-coated 24-well plates. For cell counting, a Countesse automated cell counter (Invitrogen, Carlsbad, USA) was used.
PSMA affinity and internalization kinetics of the ^18F-labeled compounds were determined according to a previously published protocol. A detailed description is provided online in the supporting information.
Competitive binding experiments (IC50) were carried out using PSMA-expressing LNCaP cells and ([^125I]I-BA)KuE as standard radioligand. Internalization kinetics of the ^18F-labeled derivatives were also performed using PSMA-expressing LNCaP cells and ([^125I]I-BA)KuE (0.2 nM) as an internal reference. Data were corrected for non-specific internalization in the presence of 100 μM 2-phosphonomethyl pentanedioic acid (PMPA) and normalized to the specific internalization observed for the radioiodinated reference compound assayed in a parallel experiment. Data represent means ± SD (n = 3).
Internalization studies of the 18F-labeled EuE-based inhibitors, 18F-DCFPyl and 18F-PSMA-1007 were performed according to a previously published protocol. Briefly, after washing the cells with 0.5 mL DMEM-F12 (5% BSA), the cells were preconditioned for a minimum of 15 min with 200 µL DMEM-F12 (5% BSA) at 37°C. Then, 25 µL (per well) of either assay medium (total internalization) or of a 100 µM 2-PMPA solution (non-specific internalization) were added, followed by addition of 25 µL of assay medium containing the respective 18F-labeled PSMA inhibitor or ([125I]I-BA)KuE (0.2 nM). The internalization kinetics were determined by cell incubation at 37°C for 5, 15, 30, and 60 min, respectively. All experiments were carried out in triplicate for each time point (control and blocking).
Incubation was terminated by placing the plate on ice and by removal of the incubation medium. The cells were subsequently rinsed with 250 µL DMEM-F12 (5% BSA) and combined with the supernatant of the previous step (amount of free radioligand). To remove receptor surface-bound radioactivity, the cells were incubated with 250 µL of ice cold PMPA in PBS (10 µM) for 10 min. After removal of the supernatant, the cells were thoroughly rinsed with another 250 µL of ice-cold PBS and both fractions were combined (amount of receptor-bound radioactivity). By incubation of the cells with 250 µL 1N NaOH (5 min), the internalized activity was released, the suspension transferred to vials, and combined with 250 µL of 1N NaOH used for subsequent rinsing of the wells. Quantification of the amount of free, PMPA-releasable, and internalized activity was performed in a γ-counter. For analysis of the internalization, data for both the 18F-labeled compound of interest and for the reference ([125I]I-BA)KuE in the same experiment were first corrected by the amount of non-specific internalization (adding of 100 µM PMPA), respectively, and then each was normalized to the amount of internalized ligand in the absence of unlabeled competitor (100%). To eliminate the influence of cell count and cell viability on the absolute internalization values, data (60 min) are expressed as the ratio of the internalization of the compound of interest to the internalization (60 min) found for ([125I]I-BA)KuE in the same experiment (Fig 2, Fig S3). Data represent means ± SD (n=3).
18F-PSMA-1007 and reference ([125I]I-BA)KuE into LNCaP cells (37°C) (mean ± SD [n = 3]) *Specific internalization of the reference compound ([125I]I-BA)KuE assayed in a parallel experiment and used for data […]
The results of the metabolite analyses of the 18F-labeled EuE-based inhibitors, as well as of 18F-PSMA- […]

[4] = tested on: LNCaP-tumor-xenografts; test: Biodistribution in LNCaP-tumor-bearing SCID mice; format: in vivo; conditions: 1 h p.i., mean ± SD, n = 4
Procedure: To induce LNCaP tumor growth, male CB-17 SCID mice (6–8 weeks, Charles River Laboratories, Sulzfeld, Germany) were inoculated subcutaneously onto the right shoulder with LNCaP cells (approximately 1 × 10^7 cells/200 μL DMEM/Nutrition Mix F-12 with Glutamax-I (1:1) medium and Matrigel (BD Biosciences, Germany) (1:1)). After 3–5 weeks, tumor size reached 4–8 mm in diameter, and the animals were used for in vivo studies.
About 0.8–1 MBq of the ^18F-labeled tracer were injected into the tail vein of the mice (n = 8) under isoflurane anesthesia. Animals were sacrificed at 1 and 2 h p.i.; the organs of interest were dissected, and the activity in the weighed tissues samples was quantified using a γ-counter.
The high plasma protein binding and therefore delayed blood pool clearance of ^18F-PSMA-1007 leads to low tumor-to-blood and tumor-to-spleen ratios, especially 2 h p.i. (Fig. 5; Additional file 1: Figure S5).
Data are given in % IA/g are means ± SD (n = 4 animals per group and time point)

[5] = molecular target: T2, PSMA (Homo sapiens, UniProt Q04609); test: Competitive binding assay (IC50) on LNCaP cells with ([125I]I-BA)KuE as radioligand; conditions: cold reference ligands, ([125I]I-BA)KuE 0.2 nM, 1 h, 4°C, mean ± SD, n = 3, read-out: PSMA affinity (IC50)
T2 construct: host or cells: LNCaP cells
T2 sequence (Q04609 whole entry): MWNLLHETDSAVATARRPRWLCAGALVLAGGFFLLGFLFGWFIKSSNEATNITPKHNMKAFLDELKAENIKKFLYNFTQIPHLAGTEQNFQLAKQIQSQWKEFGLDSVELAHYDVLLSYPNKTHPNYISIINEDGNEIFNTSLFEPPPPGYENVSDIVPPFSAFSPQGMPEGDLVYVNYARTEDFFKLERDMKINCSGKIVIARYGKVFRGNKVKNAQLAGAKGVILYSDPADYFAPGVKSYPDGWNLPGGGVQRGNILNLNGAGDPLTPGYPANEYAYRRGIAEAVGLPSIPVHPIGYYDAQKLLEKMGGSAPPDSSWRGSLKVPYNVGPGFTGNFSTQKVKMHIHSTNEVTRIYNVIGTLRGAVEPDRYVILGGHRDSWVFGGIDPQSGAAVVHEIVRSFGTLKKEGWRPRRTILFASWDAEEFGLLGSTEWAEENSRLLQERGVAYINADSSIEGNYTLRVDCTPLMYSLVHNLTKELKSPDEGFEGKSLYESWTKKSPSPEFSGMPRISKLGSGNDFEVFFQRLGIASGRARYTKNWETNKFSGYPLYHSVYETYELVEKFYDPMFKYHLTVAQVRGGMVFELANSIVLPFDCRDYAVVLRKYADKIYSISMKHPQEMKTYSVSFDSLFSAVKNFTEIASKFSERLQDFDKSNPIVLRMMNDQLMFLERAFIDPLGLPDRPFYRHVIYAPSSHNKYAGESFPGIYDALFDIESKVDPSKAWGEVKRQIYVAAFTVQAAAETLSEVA
Procedure: Competitive binding experiments (IC50) were carried out using PSMA-expressing LNCaP cells and ([^125I]I-BA)KuE as standard radioligand. […] Data represent means ± SD (n = 3).
Determination of the PSMA binding affinities (IC50)
The culture medium was removed and the cells were washed with 500 µL of HBSS (Hank´s balanced salt solution, Biochrom Berlin, Germany, containing 1% bovine serum albumin (BSA)). Before the experiment the cells were left to equilibrate in 200 µL HBSS (1% BSA) for 15 min on ice. Afterwards, 25 µL/well of solutions containing the respective unlabeled inhibitor in increasing concentrations (10- 10 – 10^-4 M in HBSS (1% BSA)) or either HBSS (1% BSA) as control were added, followed by the addition of 25 µL of ([125I]I-BA)KuE as a competitor. The final concentration of the radioiodinated inhibitor was 0.2 nM in all assays. For each concentration the experiments were performed in triplicates. Incubation of the cells was carried out for 60 min on ice and terminated by removal of the assay medium. The cells were thoroughly rinsed with 250 µL of HBSS and the washing medium was combined with the supernatant of the previous step, representing the amount of free radioligand.
Then, the cells were lysed using 250 µL of 1 N NaOH, and the lysat was transferred to vials and combined with 250 µL of HBSS, which was used for an additional washing step (bound activity). The Quantification of the amount of free and bound radioactivity was performed in a γ-counter.
performed using LNCaP cells and ([125I]I-BA)KuE (0.2 nM) as radioligand (1 h, 4°C)

[6] = CD-1, mouse, in vivo, 1 h
Procedure: (§14) Approximately 60–70 MBq of the ^18F-labeled inhibitors were injected into the tail vein of severe combined immunodeficiency (SCID) mice. The animals were sacrificed 1 h p.i., blood and urine were collected, and kidneys were dissected and after freezing with liquid nitrogen, homogenized with a ball mill and extracted with 1 mL PBS containing 200 nmol PMPA. After centrifugation (15,000g) and ultrafiltration, the extracts were analyzed by reversed phase high-performance liquid chromatography (RP-HPLC). Blood samples were centrifuged to separate the plasma from the blood cells. Additionally, plasma proteins were removed by precipitation with acetonitrile (10 min, on ice), subsequent centrifugation and ultrafiltration. The blood extracts and the urine samples were analyzed using RP-HPLC. For RP-HPLC, a Nucleosil 100 C18 (5 μm, 125 × 4.0) column and different HPLC-systems were used (EuE-based inhibitors: flow rate: 2 mL/min; Gradient: 0–30% B in 20 min; HPLC-System A (see Additional file 1); ^18F-PSMA-1007: flow rate: 1.5 mL/min; Gradient: 5–55% B in 10 min; HPLC-System B (see Additional file 1); solvent A: 0.1% trifluoroacetic acid (TFA) in water, solvent B: 0.1% TFA in MeCN).

[7] = Metabolite analysis in mice, RP-HPLC of blood, urine and kidney extracts; conditions: 1 h p.i.
Procedure: as §14

T1 sequence (P02768 25-609): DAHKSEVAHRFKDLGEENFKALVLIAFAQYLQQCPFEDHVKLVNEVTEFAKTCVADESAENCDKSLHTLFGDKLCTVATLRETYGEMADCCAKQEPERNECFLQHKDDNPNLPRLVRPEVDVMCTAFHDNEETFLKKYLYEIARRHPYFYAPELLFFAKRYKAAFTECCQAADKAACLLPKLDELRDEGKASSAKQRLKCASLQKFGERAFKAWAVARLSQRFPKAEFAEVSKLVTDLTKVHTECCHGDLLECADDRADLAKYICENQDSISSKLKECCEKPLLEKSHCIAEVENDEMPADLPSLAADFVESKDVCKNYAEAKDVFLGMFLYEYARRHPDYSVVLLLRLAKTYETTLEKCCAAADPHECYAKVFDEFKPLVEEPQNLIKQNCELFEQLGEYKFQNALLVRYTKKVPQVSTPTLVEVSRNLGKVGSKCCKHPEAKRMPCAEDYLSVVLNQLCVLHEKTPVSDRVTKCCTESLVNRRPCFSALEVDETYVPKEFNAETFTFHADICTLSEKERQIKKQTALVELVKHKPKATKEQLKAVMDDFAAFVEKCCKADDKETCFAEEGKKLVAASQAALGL

Compound | Human serum albumin binding (plasma protein binding) [1] | uptake in bone and lymph node metastases, mean SUVmax [2] | uptake in bone and lymph node metastases, mean SUVmean [2] | uptake in the kidneys (SUVmean) [2] | uptake in the liver (SUVmean) [2] | uptake in the salivary glands (SUVmean) [2] | uptake in the spleen (SUVmean) [2] | Specific Internalization (1h; % of reference) [3] | fold higher internalization rate than the reference ligands [3] | tumor accumulation [4] | IC50 [5] | intact tracer in blood, urine and kidneys [6] | enhanced internalization into LNCaP cells compared to EuE-k-18F-FBOA ([3]; versus EuE-k-18F-FBOA) | more hydrophilic metabolite, share of total activity in the kidneys ([7]; kidneys) | more hydrophilic metabolite, share of total activity in the urine ([7]; urine)
O=C(O)CCC(NC(=O)NC(CCC(=O)NC(CCCCNC(=O)CON=Cc1ccc([18F])cc1)C(=O)O)C(=O)O)C(=O)O (stereo not shown) [EuE-k-^18F-FBOA] | 13.4% | 21.6 (range 15.4–28.2) | 14.7 (range 9.2–19) | 14.0 | 6.4 | 5.8 | 6.1 | 165 ± 4 % of reference | 1.4 fold | 12.7 ± 2.0 % IA/g | 4.2 ± 0.4 nM | 100% | – | – | –
O=C(O)CCC(NC(=O)NC(CCC(=O)NC(CCCCNC(=O)CCNC(=O)c1ccc([18F])nc1)C(=O)O)C(=O)O)C(=O)O (stereo not drawn) [EuE-k-β-a-^18F-FPyl] | 12.0% | – | – | – | – | – | – | 323 ± 2 % of reference | 2.7 fold | 13.0 ± 1.0 % IA/g | 1.1 ± 0.2 nM | 100% | twofold | – | –
O=C(O)CCC(NC(=O)NC(CCCCNC(=O)c1ccc([18F])nc1)C(=O)O)C(=O)O (stereo not shown) [^18F-DCFPyl, 2-(3-{1-Carboxy-5-[(6-[18F]fluoro-pyridine-3-carbonyl)-amino]-pentyl}-ureido)-pen tanedioic acid, reference compound] | 14.3% | – | – | – | – | – | – | 118 ± 4 % of reference | – | 7.3 ± 1.0 % IA/g | – | – | – | – | –
O=C(O)CC[C@H](NC(=O)N[C@@H](CCCCNC(=O)[C@H](Cc1ccc2ccccc2c1)NC(=O)c1ccc(CNC(=O)[C@H](CCC(=O)O)NC(=O)[C@H](CCC(=O)O)NC(=O)c2ccc(F)nc2)cc1)C(=O)O)C(=O)O [^18F-PSMA-1007] | – | – | – | – | – | – | – | – | – | – | 4.2 ± 0.5 nM | – | – | – | –
O=C(O)CC[C@H](NC(=O)N[C@@H](CCCCNC(=O)[C@H](Cc1ccc2ccccc2c1)NC(=O)c1ccc(CNC(=O)[C@H](CCC(=O)O)NC(=O)[C@H](CCC(=O)O)NC(=O)c2ccc([18F])nc2)cc1)C(=O)O)C(=O)O [^18F-PSMA-1007] | 98% and 97.8% | – | – | – | – | – | – | 118 ± 5 % of reference | – | 7.1 ± 1.5 % IA/g | – | – | – | 4% | 2%
